# Source: US8846704B2, “Thiopyrimidine-based compounds and uses thereof” (YM Biosciences Austraila Pty Ltd, priority 2007, dated 2014)
# What was measured:
# Assay type in all cases: biochemical
# [1] = biological target: T1, Bmx(h) (Homo sapiens, UniProt P51813); test: Upstate KinaseProfiler enzyme assay, Bmx; details: 500 nM compound; read-out: Percent inhibition at 500 nM Bmx(h)
# T1 construct: purchased Upstate Biotechnology (Dundee, UK), KinaseProfiler service
# T1 sequence (P51813 1-675): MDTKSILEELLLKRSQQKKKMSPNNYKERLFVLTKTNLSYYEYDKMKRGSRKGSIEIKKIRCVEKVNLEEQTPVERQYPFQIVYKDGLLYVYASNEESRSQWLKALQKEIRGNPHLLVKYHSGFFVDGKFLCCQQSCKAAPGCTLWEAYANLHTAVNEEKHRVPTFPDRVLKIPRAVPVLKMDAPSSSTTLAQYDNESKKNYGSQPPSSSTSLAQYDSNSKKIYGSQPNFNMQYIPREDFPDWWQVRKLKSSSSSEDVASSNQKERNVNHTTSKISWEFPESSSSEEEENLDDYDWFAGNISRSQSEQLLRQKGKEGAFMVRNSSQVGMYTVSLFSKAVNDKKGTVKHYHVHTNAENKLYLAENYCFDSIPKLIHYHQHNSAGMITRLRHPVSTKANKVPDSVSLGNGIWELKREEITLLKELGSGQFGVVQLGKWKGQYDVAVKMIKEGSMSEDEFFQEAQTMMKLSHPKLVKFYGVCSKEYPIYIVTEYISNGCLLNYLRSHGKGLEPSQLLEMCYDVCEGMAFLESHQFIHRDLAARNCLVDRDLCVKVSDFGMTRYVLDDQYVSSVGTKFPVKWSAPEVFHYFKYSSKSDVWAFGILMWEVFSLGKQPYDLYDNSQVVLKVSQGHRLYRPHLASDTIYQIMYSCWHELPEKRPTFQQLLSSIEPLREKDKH
# Summary of the method: (§1)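 Substrates are dissolved and diluted to working stocks in de-ionised water. Enzymes go into the assay from 10× working dilutions prepared in pH 7.0 MOPS buffer (20 mM) containing BSA 1 mg/ml, glycerol 5%, Brij-35 0.01%, β-mercaptoethanol 0.1% and EDTA 1 mM.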
# [2] = biological target: T2, BTK(h) (Homo sapiens, UniProt Q06187); test: Upstate KinaseProfiler enzyme assay, BTK; details: 500 nM compound; read-out: Percent inhibition at 500 nM BTK(h)
# T2 construct: purchased Upstate Biotechnology (Dundee, UK), KinaseProfiler service
# T2 sequence (Q06187 whole entry): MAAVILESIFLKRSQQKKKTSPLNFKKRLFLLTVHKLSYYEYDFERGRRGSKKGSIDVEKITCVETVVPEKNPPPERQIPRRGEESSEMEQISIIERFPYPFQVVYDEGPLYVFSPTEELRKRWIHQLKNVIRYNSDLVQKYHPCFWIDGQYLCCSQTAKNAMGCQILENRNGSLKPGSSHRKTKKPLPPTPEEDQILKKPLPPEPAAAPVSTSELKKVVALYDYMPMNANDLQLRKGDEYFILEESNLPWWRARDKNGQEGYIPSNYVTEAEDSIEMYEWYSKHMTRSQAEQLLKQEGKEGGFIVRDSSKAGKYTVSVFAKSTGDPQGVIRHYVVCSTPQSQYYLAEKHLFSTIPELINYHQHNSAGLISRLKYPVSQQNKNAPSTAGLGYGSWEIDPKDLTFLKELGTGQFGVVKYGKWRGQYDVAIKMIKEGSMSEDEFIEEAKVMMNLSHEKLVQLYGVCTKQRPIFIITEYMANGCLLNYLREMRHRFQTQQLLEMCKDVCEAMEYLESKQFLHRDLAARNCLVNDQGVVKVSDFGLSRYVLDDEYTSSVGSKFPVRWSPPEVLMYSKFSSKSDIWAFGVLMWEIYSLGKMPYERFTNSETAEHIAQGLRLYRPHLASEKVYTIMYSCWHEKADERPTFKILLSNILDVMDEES
# Summary of the method: as §1
# [3] = biological target: T3, KDR(h) (Homo sapiens, UniProt P35968); test: Upstate KinaseProfiler enzyme assay, KDR; details: 500 nM compound; read-out: Percent inhibition at 500 nM KDR(h)
# T3 construct: purchased Upstate Biotechnology (Dundee, UK), KinaseProfiler service
# T3 sequence (P35968 20-1356): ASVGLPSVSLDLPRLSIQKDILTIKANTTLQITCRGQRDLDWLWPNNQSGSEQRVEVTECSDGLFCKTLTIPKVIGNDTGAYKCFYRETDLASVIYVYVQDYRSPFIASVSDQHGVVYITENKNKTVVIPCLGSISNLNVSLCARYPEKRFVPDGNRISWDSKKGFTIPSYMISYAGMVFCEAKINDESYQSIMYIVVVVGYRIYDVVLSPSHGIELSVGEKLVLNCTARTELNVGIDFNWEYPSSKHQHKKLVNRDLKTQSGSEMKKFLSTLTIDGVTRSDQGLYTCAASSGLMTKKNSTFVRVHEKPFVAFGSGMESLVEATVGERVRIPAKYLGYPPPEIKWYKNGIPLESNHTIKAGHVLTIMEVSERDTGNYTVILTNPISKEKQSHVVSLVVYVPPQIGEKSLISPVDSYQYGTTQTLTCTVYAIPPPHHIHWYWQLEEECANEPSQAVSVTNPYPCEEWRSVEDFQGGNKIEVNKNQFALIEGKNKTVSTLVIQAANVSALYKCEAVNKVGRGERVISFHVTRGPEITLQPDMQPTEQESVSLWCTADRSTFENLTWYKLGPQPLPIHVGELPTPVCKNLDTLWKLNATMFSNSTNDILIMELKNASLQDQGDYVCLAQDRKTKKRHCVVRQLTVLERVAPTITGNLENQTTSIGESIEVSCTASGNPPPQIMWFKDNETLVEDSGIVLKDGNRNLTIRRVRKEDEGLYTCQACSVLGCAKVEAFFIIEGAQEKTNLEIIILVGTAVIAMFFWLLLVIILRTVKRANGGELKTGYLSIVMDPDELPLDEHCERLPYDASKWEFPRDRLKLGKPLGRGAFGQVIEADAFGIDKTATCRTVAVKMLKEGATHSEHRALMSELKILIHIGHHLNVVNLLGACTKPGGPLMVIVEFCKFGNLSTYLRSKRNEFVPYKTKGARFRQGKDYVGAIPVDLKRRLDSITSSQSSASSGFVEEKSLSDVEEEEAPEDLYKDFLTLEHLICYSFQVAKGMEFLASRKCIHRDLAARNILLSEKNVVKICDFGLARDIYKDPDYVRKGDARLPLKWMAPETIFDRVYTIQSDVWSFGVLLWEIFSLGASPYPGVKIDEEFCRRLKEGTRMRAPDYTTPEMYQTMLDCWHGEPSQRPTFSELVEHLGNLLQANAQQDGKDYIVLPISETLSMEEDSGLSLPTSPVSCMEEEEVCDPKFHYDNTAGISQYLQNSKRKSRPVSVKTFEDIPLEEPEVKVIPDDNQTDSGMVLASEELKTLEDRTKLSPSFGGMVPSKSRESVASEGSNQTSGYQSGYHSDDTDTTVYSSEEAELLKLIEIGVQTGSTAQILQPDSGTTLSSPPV
# Summary of the method: as §1
# [4] = biological target: T4, Flt 1(h) (Homo sapiens, UniProt P17948); test: Upstate KinaseProfiler enzyme assay, Flt 1; details: 500 nM compound; read-out: Percent inhibition at 500 nM Flt 1(h)
# T4 construct: purchased Upstate Biotechnology (Dundee, UK), KinaseProfiler service
# T4 sequence (P17948 27-1338): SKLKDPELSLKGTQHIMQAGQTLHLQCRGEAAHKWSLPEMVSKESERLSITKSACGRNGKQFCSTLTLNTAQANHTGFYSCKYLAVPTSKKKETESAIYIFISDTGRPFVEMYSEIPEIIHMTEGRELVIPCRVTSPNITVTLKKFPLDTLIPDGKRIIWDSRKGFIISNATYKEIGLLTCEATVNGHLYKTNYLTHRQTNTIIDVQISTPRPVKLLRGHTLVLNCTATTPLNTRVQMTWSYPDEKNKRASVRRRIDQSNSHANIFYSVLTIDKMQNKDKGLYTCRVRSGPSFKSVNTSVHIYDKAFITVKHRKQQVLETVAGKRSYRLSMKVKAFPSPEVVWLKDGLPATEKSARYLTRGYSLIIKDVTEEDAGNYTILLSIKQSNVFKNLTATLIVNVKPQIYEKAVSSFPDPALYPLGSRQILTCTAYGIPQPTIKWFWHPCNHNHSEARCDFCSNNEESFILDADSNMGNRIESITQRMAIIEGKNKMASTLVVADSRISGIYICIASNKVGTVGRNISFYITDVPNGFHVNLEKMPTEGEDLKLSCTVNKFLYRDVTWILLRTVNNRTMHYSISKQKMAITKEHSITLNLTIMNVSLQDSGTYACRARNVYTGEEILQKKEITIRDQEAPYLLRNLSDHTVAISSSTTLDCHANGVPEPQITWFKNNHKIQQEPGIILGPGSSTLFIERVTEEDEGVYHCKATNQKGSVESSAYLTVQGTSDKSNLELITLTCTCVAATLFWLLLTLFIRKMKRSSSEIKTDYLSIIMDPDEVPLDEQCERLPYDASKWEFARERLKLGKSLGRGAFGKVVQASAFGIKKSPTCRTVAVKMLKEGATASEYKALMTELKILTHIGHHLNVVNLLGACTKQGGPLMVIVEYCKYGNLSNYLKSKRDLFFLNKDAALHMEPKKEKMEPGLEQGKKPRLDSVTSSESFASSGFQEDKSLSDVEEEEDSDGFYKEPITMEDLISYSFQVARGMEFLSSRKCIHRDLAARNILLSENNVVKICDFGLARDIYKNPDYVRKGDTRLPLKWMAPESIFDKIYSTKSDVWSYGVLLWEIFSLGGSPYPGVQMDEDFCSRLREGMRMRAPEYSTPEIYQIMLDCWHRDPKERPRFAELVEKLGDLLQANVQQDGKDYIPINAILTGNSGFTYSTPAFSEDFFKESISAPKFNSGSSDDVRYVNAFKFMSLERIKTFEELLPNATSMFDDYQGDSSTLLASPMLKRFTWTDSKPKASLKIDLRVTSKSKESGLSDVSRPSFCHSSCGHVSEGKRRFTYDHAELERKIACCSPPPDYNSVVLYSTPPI
# Summary of the method: as §1
# [5] = biological target: T5, Flt 4(h) (Homo sapiens, UniProt P35916); test: Upstate KinaseProfiler enzyme assay, Flt 4; details: 500 nM compound; read-out: Percent inhibition at 500 nM Flt 4(h)
# T5 construct: purchased Upstate Biotechnology (Dundee, UK), KinaseProfiler service
# T5 sequence (P35916 25-1363): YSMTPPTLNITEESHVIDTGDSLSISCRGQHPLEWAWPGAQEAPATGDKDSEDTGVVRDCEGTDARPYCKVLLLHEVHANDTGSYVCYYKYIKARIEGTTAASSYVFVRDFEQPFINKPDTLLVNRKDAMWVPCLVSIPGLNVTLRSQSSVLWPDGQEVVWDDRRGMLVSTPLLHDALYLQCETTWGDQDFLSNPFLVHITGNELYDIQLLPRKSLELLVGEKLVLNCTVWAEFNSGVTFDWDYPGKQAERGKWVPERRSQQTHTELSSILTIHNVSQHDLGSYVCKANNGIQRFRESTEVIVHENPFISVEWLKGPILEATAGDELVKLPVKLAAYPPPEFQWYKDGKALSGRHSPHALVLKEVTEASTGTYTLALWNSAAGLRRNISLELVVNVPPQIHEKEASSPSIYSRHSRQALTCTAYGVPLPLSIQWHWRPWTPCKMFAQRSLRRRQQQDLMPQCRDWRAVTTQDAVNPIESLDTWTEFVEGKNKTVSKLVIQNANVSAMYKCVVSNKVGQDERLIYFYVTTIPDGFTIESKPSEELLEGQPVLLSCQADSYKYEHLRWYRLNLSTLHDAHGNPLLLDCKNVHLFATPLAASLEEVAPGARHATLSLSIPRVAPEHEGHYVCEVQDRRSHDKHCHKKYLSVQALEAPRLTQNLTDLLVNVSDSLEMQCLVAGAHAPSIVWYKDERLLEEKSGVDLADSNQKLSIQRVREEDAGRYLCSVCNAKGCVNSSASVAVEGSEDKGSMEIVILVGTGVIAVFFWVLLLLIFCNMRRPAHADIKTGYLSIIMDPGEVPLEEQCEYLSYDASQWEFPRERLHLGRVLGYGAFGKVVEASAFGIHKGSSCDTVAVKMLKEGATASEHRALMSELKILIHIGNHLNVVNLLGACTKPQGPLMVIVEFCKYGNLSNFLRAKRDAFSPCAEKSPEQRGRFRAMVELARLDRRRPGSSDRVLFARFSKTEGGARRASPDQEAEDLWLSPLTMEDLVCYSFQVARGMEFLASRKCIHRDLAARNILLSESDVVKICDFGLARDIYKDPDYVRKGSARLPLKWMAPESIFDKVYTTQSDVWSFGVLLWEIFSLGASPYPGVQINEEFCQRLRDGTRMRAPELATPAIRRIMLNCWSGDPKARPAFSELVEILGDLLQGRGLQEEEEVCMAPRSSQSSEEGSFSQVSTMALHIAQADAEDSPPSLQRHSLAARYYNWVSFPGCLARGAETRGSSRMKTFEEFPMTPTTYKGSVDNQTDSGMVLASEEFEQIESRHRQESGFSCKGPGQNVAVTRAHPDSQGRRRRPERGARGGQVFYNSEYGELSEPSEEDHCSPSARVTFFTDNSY
# Summary of the method: as §1
SMILES,inhibition at 0.5 µM [1] [%],inhibition at 0.5 µM [2] [%],inhibition at 0.5 µM [3] [%],inhibition at 0.5 µM [4] [%],inhibition at 0.5 µM [5] [%]
"C=CC(=O)Nc1ccc(Sc2ccnc(Nc3ccc(OC)cc3)n2)cc1 [Compound 74, N-(4-(2-(4-methoxyphenylao)pyrimidin-4-ylthio)phenyl)acrylamide]",100,100,100,–,–
"C=CC(=O)Nc1ccc(Sc2ccnc(Nc3ccc(N4CCC(N5CCCC5)CC4)cc3)n2)cc1 [Compound 87, N-(4-(2-(4-(4-(pyrrolidin-1-yl)piperidin-1-yl)phenylao)pyrimidin-4-ylthio)phenyl)acrylamide]",100,100,100,–,–
C=CC(=O)Nc1ccc(Sc2ccnc(Nc3ccc(OC)c(O)c3)n2)cc1 [Compound 97],100,100,100,–,–
"C=CC(=O)Nc1ccc(Sc2ccnc(Nc3ccc(N4CCS(=O)(=O)CC4)cc3)n2)cc1 [Compound 99, N-{4-[(2-{[4-(1,1-dioxo-1λ^6,4-thiomorpholin-4-yl)phenyl]ao}pyrimidin-4-yl)sulfanyl]phenyl}prop-2-enamide]",100,100,100,–,–
"CC#CC(=O)Nc1ccc(Sc2ccnc(Nc3ccc(N4CCOCC4)cc3)n2)cc1 [Compound 104, N-(4-(2-(4-morpholinophenylao)pyrimidin-4-ylthio)phenyl)but-2-ynamide]",100,73,–,–,–
"C=CC(=O)Nc1ccc(Sc2ccnc(Nc3cccc(OC)c3)n2)cc1 [Compound 105, N-(4-(2-(3-methoxyphenylao)pyrimidin-4-ylthio)phenyl)acrylamide]",100,100,100,–,–
"C=CC(=O)Nc1ccc(Sc2ccnc(Nc3cccc(C#N)c3)n2)cc1 [Compound 118, N-(4-(2-(3-cyanophenylao)pyrimidin-4-ylthio)phenyl)acrylamide]",100,100,100,–,–
"C=CC(=O)Nc1cccc(Sc2ccnc(Nc3ccc(OC)cc3)n2)c1 [Compound 120, N-(3-(2-(4-methoxyphenylao)pyrimidin-4-ylthio)phenyl)acrylamide]",100,100,100,–,–
"CC#CC(=O)Nc1ccc(Sc2nc(Nc3ccc(N4CCOCC4)cc3)ncc2C)cc1 [Compound 125, N-(4-(5-methyl-2-(4-morpholinophenylao)pyrimidin-4-ylthio)phenyl)but-2-ynamide]",100,100,100,–,–
"Cc1cnc(Nc2ccc(N3CCOCC3)cc2)nc1Sc1ccc(N)cc1 [Compound 126, 4-(4-aophenylthio)-5-methyl-N-(4-morpholinophenyl)pyrimidin-2-ae]",78,–,95,93,99
"C=CC(=O)Nc1ccc(Sc2ccnc(Nc3ccc(C#N)cc3)n2)cc1 [Compound 131, N-(4-(2-(4-cyanophenylao)pyrimidin-4-ylthio)phenyl)acrylamide]",100,100,100,–,–
"CC(=O)Nc1ccc(Sc2nc(Nc3ccc(N4CCOCC4)cc3)ncc2C)cc1 [Compound 135, N-(4-(5-methyl-2-(4-morpholinophenylao)pyrimidin-4-ylthio)phenyl)acetamide]",58,–,95,96,99
"C=CC(=O)Nc1ccc(Sc2ccnc(Nc3ccc(N4CCOCC4)cc3)n2)c(Cl)c1C [Compound 161, N-(3-chloro-2-methyl-4-(2-(4-morpholinophenylao)pyrimidin-4-ylthio)phenyl)acrylamide]",100,100,100,–,–
"C=CC(=O)Nc1cc(C)c(Sc2nc(Nc3ccc(N4CCOCC4)cc3)ncc2C)c(C)c1 [Compound 164, N-(3,5-dimethyl-4-(5-methyl-2-(4-morpholinophenylao)pyrimidin-4-ylthio)phenyl)acrylamide]",87,–,83,44,97
"C=CC(=O)Nc1ccc(Sc2nc(Nc3ccc(N4CCC(C(=O)OCC)CC4)cc3)ncc2C)cc1 [Compound 292, ethyl 1-(4-(4-(4-acrylamidophenylthio)-5-methylpyrimidin-2-ylao)phenyl)piperidine-4-carboxylate]",59,3,96,67,100
"C=CC(=O)Nc1ccc(Sc2nc(Nc3ccc(CNS(C)(=O)=O)cc3)ncc2C)cc1 [Compound 294, N-(4-(5-methyl-2-(4-(methylsulfonamidomethyl)phenylao)pyrimidin-4-ylthio)phenyl)acrylamide]",92,77,93,94,100
"C=CC(=O)Nc1ccc(Sc2nc(Nc3ccc(N4CCOCC4)cc3)ncc2-c2ccccc2)cc1 [Compound 307, N-(4-(2-(4-morpholinophenylao)-5-phenylpyrimidin-4-ylthio)phenyl)acrylamide]",29,–,72,19,93
"C=CC(=O)Nc1ccc(Sc2ccnc(Nc3ccccc3)n2)cc1 [Compound 350, N-(4-(2-(phenylao)pyrimidin-4-ylthio)phenyl)acrylamide]",100,100,100,–,–
"C=CC(=O)Nc1ccc(Sc2ccnc(Nc3ccc(S(N)(=O)=O)cc3)n2)cc1 [Compound 352, N-(4-(2-(4-sulfamoylphenylao)pyrimidin-4-ylthio)phenyl)acrylamide]",100,100,100,–,–
"C=CC(=O)Nc1ccc(Sc2ccnc(Nc3ccc(Cl)cc3)n2)cc1 [Compound 353, N-(4-(2-(4-chlorophenylao)pyrimidin-4-ylthio)phenyl)acrylamide]",100,100,100,–,–
"C=CC(=O)Nc1ccc(Sc2ccnc(Nc3ccc(F)c(C#N)c3)n2)cc1 [Compound 354, N-(4-(2-(3-cyano-4-fluorophenylao)pyrimidin-4-ylthio)phenyl)acrylamide]",100,100,100,–,–
"C=CC(=O)Nc1ccc(Sc2ccnc(Nc3cccc(C(=O)OC)c3)n2)cc1 [Compound 356, methyl 3-(4-(4-acrylamidophenylthio)pyrimidin-2-ylao)benzoate]",100,100,100,–,–
"C=CC(=O)Nc1ccc(Sc2ccnc(Nc3ccc(C(=O)OC)cc3)n2)cc1 [Compound 357, methyl 4-(4-(4-acrylamidophenylthio)pyrimidin-2-ylao)benzoate]",48,–,95,76,99
"C=CC(=O)Nc1ccc(Sc2ccnc(Nc3cccc(S(N)(=O)=O)c3)n2)cc1 [Compound 364, N-(4-(2-(3-sulfamoylphenylao)pyrimidin-4-ylthio)phenyl)acrylamide]",73,–,96,97,99
